Data taken from patent US9095535B2, “GABA release-regulating agent in cerebellum” (KOREA INSTITUTE OF SCIENCE AND TECHNOLOGY, priority 2009, dated 2015).
Structures can show the parent of a compound that is named as a salt.

Legend:
cerebellar granule cells [1] = experiment: Whole-cell patch clamp of tonic GABA current in cerebellar granule cells; assay type: cell-based, mouse; conditions: for GABAzine-sensitive current after incubation: 150 μM BAPTA-AM (25 min) or 0.5 μM concanamycin A; for block of GABAzine-sensitive current by anion channel blockers: 100 μM Niflumic acid, DIDS concentration not given
Experimental: Brain slices were prepared as described in Rossi et al., 2003. For slice recording, either approximately P28 days old or more than 8 weeks old mice were used. Animals were deeply anesthetized with halothane. After decapitation, the brain was quickly excised from the skull and submerged in ice-cold cutting solution (in mM): 250 Sucrose, 26 NaHCO3, 10 D(+)-Glucose, 4 MgCl2, 3 myo-inositol, 2.5 KCl, 2 Sodium pyruvate, 1.25 NaH2PO4, 0.5 Ascorbic acid 0.1 CaCl2, 1 Kynurenic acid, pH 7.4. All solutions were gas-treated with 95% O2-5% CO2. After trimming both sides of vermis, several parasagittal slices with […] thicknesses containing cerebellar lobes were cut using a microtome (Leica VT 1000) and transferred to extracellular ACSF solution (in mM); 126 NaCl, 24 NaHCO3, 1 NaH2PO4, 2.5 KCl, 2.5 CaCl2, 2 MgCl2, 10 D(+)-Glucose, pH 7.4. Slices were incubated for one hour at least at room temperature.
For recording, slices were transferred to an electrophysiological recording chamber (RC-26G, Warner Instruments) which is continuously superfused with ASCF (artificial cerebrospinal fluid, sigma) solution (flow rate; 2 ml/min) and controlled by flower controller (Synaptosoft) and a vacuum pump (Charles Austen, model Capex 8C). Slice chamber was mounted on the stage of an upright microscope (Olympus, Japan) and viewed with an ×60 water immersion objective with differential interference contrast and infrared optics. Cellular morphologies were visually identified by Imaging Workbench 6.0 (INDEC Systems, Inc), camera controller (Hamamatsu, C4742-95), and light microscope controller (Olympus, TH4-200). Fluorescence images were viewed with mercury lamp (Olympus, U-RFL-T). Whole cell voltage-clamp recording was made from granular cell somata or Bergmann glial cells mostly located in 2-5 cerebellar lobules
Pipette resistance for granule cells was typically 10-12 MΩ and pipette was filled with an internal solution containing (in mM) 135 CsCl, 4 NaCl, 0.5 CaCl2, 10 HEPES, 5 EGTA, 2 Mg-ATP, 0.5 Na2-GTP, 10 QX-314, pH adjusted to 7.2 with CsOH (278-285 mOsmol) was used (Rossi, et al., 2003).
(§1) B6 wildtype, GFAP-GFP and hGFAP-CreERT2 trangenic mice (SPF room, Center for Neural Science, KIST, Seoul, Korea) were anaesthetized by intraperitoneal injection of 2% avertin (20 μl/g, sigma) and placed in a stereotaxic frame (David Kopf instrument). pSicoR-b1shRNA-mCherry or scrambled virus (Macrogen) was stereo-injected into cerebellar cortex at a rate of 0.2 μl/min (total 2 μl) using syringe pump (Harvard apparatus) and 25 μl syringe (Hamilton company). The coordination of injection site was 1.7 mm from the lambda and the depth was 1.5-1.7 mm from the skull.
The glia-specific CreERT activation was initiated by intraperitoneal injection of tamoxifen for 5 days prior to lentivirus injection (FIG. 4a,b). […] Tamoxifen or sunflower oil were injected intraperitoncally once a day for 5 days before lentivirus injection.

Best1 channel = target: T1, Best1 channel (Mus musculus, UniProt O88870); assay type: cell-based; conditions: NPPB and NFA at 100 μM; inward current in GABAc sensor cell
T1 construct: mBest1 full-length fragment from pGEM-T easy plasmid (6.65 kb, Promega) was subcloned into pcDNA 3.1; expressed in transfected cells; host or cells: HEK293T (ATCC)
T1 sequence (O88870 1-551 R255K): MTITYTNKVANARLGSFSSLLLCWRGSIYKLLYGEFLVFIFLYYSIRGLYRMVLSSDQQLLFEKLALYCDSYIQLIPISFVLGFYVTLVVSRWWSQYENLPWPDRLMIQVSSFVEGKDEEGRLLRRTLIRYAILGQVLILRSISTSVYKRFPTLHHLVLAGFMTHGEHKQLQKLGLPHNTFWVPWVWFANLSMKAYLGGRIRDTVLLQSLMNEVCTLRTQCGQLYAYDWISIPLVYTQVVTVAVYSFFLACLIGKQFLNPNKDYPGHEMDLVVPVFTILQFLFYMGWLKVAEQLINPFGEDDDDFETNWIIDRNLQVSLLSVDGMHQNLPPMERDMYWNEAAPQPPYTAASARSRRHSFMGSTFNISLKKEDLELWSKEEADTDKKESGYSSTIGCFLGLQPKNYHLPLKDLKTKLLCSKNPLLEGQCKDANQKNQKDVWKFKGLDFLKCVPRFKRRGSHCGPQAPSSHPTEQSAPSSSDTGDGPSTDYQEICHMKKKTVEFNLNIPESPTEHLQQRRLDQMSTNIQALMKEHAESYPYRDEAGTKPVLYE
Text: For Best1 channel to mediate release of GABA, it has to permeate GABA upon channel opening. To test for GABA permeability of Best1 channel, a two-cell sniffer patch technique was developed to directly measure GABA release via Best1 channel in sensor HEK293T cells that express GABAc, and via other channels that are expressed in source HEK293T cells (FIG. 1b).
pIRES-Best1-dsRED plasmid (obtained by cloning Best1 using pIRES-dsRED (Invitrogen)) and GABAc with GFP (obtained by cloning GABAc using pcDNA3.1 (Invitrogen)) were transfected into HEK 293T cells (ATCC) using Effectene transfection reagent (Qiagen). […]
GABA release was induced by a break-though of membrane patch that goes into a whole-cell configuration in the source cell and such the released GABA was monitored and detected by a neighboring sensor cell. Full activation of GABA current was obtained by bath application of 100 μM GABA and the percentage of full activation was calculated (FIGS. 1c and 1d).
Permeated GABA is detected in sensor as an inward current (bottom traces). […] The GABA permeability of said mutant was determined by using cells obtained by transfecting said mutant into HEK293t cell (ATCC). […] The GABA permeability of said AN01 was determined by using cells obtained by transfecting said mutant into HEK293t cell (ACTT).

GABAc receptors = experiment: Patch clamp of GABAc expressing HEK293 cells challenged with 100 μM GABA; assay type: cell-based; conditions: 100 μM GABA in absence or presence of 100 μM NFA and 100 μM NPPB
Experimental: FIGS. 7a and 7b show the results when GABAc expressing HEK293 cells were patch clamped and challenged with 100 μM GABA in the absence and presence of 100 μM NFA and 100 μM NPPB; and
In FIGS. 7a and 7b, GABAc expressing HEK293 cells were patch clamped and challenged with 100 μM GABA in the absence or presence of 100 μM NFA and 100 μM NPPB.

hBest1 = target: T2, hBest1 (Homo sapiens, UniProt O76090); conditions: cited from earlier work
T2 sequence (O76090 1-585): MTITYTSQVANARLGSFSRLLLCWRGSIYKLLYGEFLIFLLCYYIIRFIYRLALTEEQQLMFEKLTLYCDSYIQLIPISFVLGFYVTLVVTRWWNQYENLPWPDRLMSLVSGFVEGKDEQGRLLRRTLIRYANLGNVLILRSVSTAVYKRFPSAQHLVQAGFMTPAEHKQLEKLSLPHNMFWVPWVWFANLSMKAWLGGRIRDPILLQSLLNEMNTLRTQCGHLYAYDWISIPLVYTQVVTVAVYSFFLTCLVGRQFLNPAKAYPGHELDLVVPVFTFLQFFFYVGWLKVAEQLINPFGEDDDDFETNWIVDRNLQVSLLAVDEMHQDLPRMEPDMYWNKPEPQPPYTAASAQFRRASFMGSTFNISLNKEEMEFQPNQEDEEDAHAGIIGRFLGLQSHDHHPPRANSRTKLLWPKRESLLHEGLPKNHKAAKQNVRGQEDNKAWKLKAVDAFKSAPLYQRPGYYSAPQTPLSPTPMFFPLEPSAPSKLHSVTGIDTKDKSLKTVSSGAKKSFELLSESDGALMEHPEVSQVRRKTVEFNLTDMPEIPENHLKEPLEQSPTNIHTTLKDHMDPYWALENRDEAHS

cerebellar granule cells [2] = experiment: Clomeleon imaging of [Cl−]i in cerebellar granule cells (tonic GABA release); assay type: cell-based, mouse; conditions: bath application of 10 μM
Experimental: as §1, with “skull. […]” for “skull.”
Clomeleon, based on fluorescence resonance energy transfer (FRET), is a genetically-encoded fluorescent indicator for Cl^− in which chloride-sensitive yellow fluroscent protein fused with chloride-insensitive cyan fluorescent protein via a flexible peptide linker (Kuner and Augustine, 2000). […]
For imaging, two ROIs (Regions of Interest) covering the granule cell layer and the molecular layer were drawn. […] Fluorescence excitation was produced by two consecutive 200 to 500 ms long light pulses at 0.5 Hz and fluorescence emission was alternately collected at each wavelength with a back-illuminated, cooled CCD camera with the on-chip multiplication gain control (Cascade 512B, Photometrics). […]

[3] = tested on: cell line derived from type-2 astrocytes; conditions: cited from earlier work

Structure (SMILES): C/C=C/[C@H]1O[C@@](O)([C@@H](C)[C@H](O)[C@H](C)[C@H]2OC(=O)/C(OC)=C/C(C)=C/[C@@H](C)[C@@H](O)[C@@H](CC)[C@@H](O)[C@H](C)C/C(C)=C/C=C/[C@@H]2OC)C[C@@H](O[C@H]2C[C@@H](O)[C@H](OC(N)=O)[C@@H](C)O2)[C@@H]1C [concanamycin A]
- GABAzine-sensitive current after incubation (cerebellar granule cells [1]): did not have such affect

Structure (SMILES): CC/C(=C(\c1ccccc1)c1ccc(OCCN(C)C)cc1)c1ccccc1 [Tamoxifen]
- NPPB-sensitive current (cerebellar granule cells [1]; hGFAP-CreERT2 mice with Tamoxifen and Best1-shRNA lentivirus, naïve 18.95±2.47 pA): 19.27±2.2 pA
- GABAzine-sensitive current (cerebellar granule cells [1]; hGFAP-CreERT2 mice, tamoxifen i.p. 5 days, then Best1-shRNA lentivirus (glia-specific rescue)): 31.31±2.19 pA

Structure (SMILES): O=C(O)c1cccnc1Nc1cccc(C(F)(F)F)c1 [NFA, Niflumic acid]
- GABA release via Best1 (Best1 channel): completely abolished
- GABA response of GABAc expressing HEK293 cells (GABAc receptors): do not have significant impact
- block of GABAzine-sensitive current by anion channel blockers (cerebellar granule cells [1]): blocked the GABAzine-sensitive current significantly
- block of hBest1 Cl− channel (hBest1): readily blocked

Structure (SMILES): COc1ccc(-c2ccc(=N)n(CCCC(=O)O)n2)cc1 [GABAzine, SR95531 hydrobromide]
- [Cl−]i in granular cell bodies and parallel fibers (cerebellar granule cells [2]): markedly decreased
- GABAzine-sensitive current (cerebellar granule cells [1]; naïve mice, holding −60 mV): 35.68±4.05 pA

Structure (SMILES): CC(=O)OCOC(=O)CN(CC(=O)OCOC(C)=O)c1ccccc1OCCOc1ccccc1N(CC(=O)OCOC(C)=O)CC(=O)OCOC(C)=O [BAPTA-AM, 1,2-Bis(2-aminophenoxy)ethane-N,N,N′,N′-tetraacetic acid tetrakis(acetoxymethyl ester)]
- GABAzine-sensitive current after incubation (cerebellar granule cells [1]): significantly reduced

Structure (SMILES): CC(=O)Nc1ccc(C=Cc2ccc(N=C=S)cc2S(=O)(=O)O)c(S(=O)(=O)O)c1 [SITS, 4-acetamido-4′-isothiocyanostilbene-2,2′-disulphonic acid]
- sensitivity of P2X7-induced [3H]-GABA release to inhibitors [3]: sensitive

Structure (SMILES): O=S(=O)(O)c1cc(N=C=S)ccc1C=Cc1ccc(N=C=S)cc1S(=O)(=O)O [DIDS, 4,4′-diisothiocyanatostilbene-2,2′-disulfonic acid]
- block of GABAzine-sensitive current by anion channel blockers (cerebellar granule cells [1]): blocked the GABAzine-sensitive current significantly
- block of hBest1 Cl− channel (hBest1): readily blocked
- sensitivity of P2X7-induced [3H]-GABA release to inhibitors [3]: sensitive
